In patent publication US8080665B2 (Chugai Seiyaku Kabushiki Kaisha, priority 2003, dated 2011):

Test system: Isolated Working Rat Hearts
Assay: Glucose oxidation in isolated working rat hearts
Settings: not given
Description: Isolated Working Rat Heart Assay Protocol
Isolated working hearts from male Sprague-Dawley rats (300-350 g) are subjected to a 60-minute aerobic perfusion period. The working hearts are perfused with 95% O2, 5% CO2 with a modified Krebs-Henseleit solution containing 5 mM glucose; 100 μU/mL insulin; 3% fatty acid-free BSA; 2.5 mM free Ca^2+, and 0.4 to 1.2 mmol/L palmitate (Kantor et al., Circulation Research 86:580-588 (2000)). The test compound is added 5 minutes before the perfusion period. DMSO (0.05%) is used as control.
Measurement of Glucose Oxidation Rates
Samples were taken at 10-minute intervals for measurements of experimental parameters. Glucose oxidation rates are determined by the quantitative collection of ^14CO2 produced by hearts perfused with buffer containing [U14]-Glucose (R. Barr and G. Lopaschuk, in “Measurement of cardiovascular function”, McNeill, J. H. ed., Chapter 2, CRC press, New York (1997)). After the perfusion, the ^14CO2 from the perfusae is subsequently released by injecting 1 mL of perfusate into sealed test tube containing 1 mL of 9NH2SO4. The tube was sealed with a rubber stopper attached to a scintillation vial containing a piece of filter papers saturated with 300 μl of hyamine hydroxide. The scintillation vials with filter papers were then removed and Ecolite Scintillation Fluid added. Samples were counted by standard procedures as described above. Average rates of glucose oxidation for each phase of perfusion are expressed as μmol/min/g dry wt as described above.
Active compounds are characterized by an increase in glucose oxidation and/or decrease in fatty acid oxidation as compared to the control experiments (DMSO). The compounds that caused statistically significant increases in glucose oxidation and/or decrease in fatty acid oxidation are considered to be active. Statistical significance was calculated using the Student's t test for paired or unpaired samples, as appropriate. The results with P<0.05 are considered to be statistically significant.

| SMILES | GOX (%), glucose oxidation rate relative to DMSO (100%) [%] |
| --- | --- |
| CC(C)N(C(=O)NC1CCN(C(=O)COc2ccccc2)CC1)c1ccc2nc(S)sc2c1 [CBM-000302218] | 236 |
| CCCCS(=O)(=O)N1CCC(NC(=O)N(c2ccc3nc(S)sc3c2)C(C)C)CC1 [CBM-000302276] | 310 |
| CC(C)N(C(=O)NC1CCN(S(=O)(=O)c2cccc(C(F)(F)F)c2)CC1)c1ccc2nc(S)sc2c1 [CBM-000302280] | 683 |
| CN(C(=O)NC1CCN(S(=O)(=O)c2ccccc2)CC1)c1ccc2nc(S)sc2c1 [CBM-000302281, 3-(1-Benzenesulfonyl-piperidin-4-yl)-1-(2-mercapto-benzothiazol-6-yl)-1-methyl-urea] | 190 |
| CC(C)N(C(=O)NC1CCN(S(=O)(=O)c2cccc(Cl)c2)CC1)c1ccc2nc(S)sc2c1 [CBM-000302342] | 285 |
| CC(C)N(C(=O)NC1CCN(S(=O)(=O)c2cccc(C#N)c2)CC1)c1ccc2nc(S)sc2c1 [CBM-000302343] | 177 |

Test system: muscle (M) isoform of CPT-I
Assay: not given
Settings: read-out: IC50 of malonyl-CoA inhibition of CPT-I; cited from earlier work

| SMILES | IC50 [µM] |
| --- | --- |
| CC(C)(COP(=O)(O)OP(=O)(O)OC[C@H]1O[C@@H](n2cnc3c(N)ncnc32)[C@H](O)[C@@H]1OP(=O)(O)O)[C@@H](O)C(=O)NCCC(=O)NCCSC(=O)CC(=O)O [Malonyl-CoA] | 0.03 |

Test system: breast carcinoma cells
Assay: not given
Settings: cited from earlier work

| SMILES | malonyl-CoA level, % of the control [%] |
| --- | --- |
| CCCCCCCCCCCCCCOc1ccc(C(=O)O)o1 [TOFA, 5-(tetradecyloxy)-2-furoic acid] | 60 |

Target: T1, hMCD (Homo sapiens, UniProt O95822)
T1 sequence (O95822 40-493): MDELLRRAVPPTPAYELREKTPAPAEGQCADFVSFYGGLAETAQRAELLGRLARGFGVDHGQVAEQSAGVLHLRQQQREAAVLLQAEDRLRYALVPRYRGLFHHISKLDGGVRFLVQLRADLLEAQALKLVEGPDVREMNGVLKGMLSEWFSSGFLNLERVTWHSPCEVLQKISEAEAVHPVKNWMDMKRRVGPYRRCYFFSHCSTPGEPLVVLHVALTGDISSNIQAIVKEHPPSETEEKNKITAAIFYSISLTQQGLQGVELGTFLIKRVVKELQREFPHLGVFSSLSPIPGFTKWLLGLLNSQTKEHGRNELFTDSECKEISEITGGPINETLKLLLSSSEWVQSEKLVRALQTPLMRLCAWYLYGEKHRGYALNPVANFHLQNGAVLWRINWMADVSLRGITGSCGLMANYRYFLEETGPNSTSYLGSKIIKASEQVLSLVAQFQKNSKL
Assay: In vitro MCD inhibitory assay
Assay type: biochemical
Settings: read-out: Ki, in vitro MCD inhibitory activities
Source text: In Vitro MCD Inhibitory Assay
As shown in eq. 1-3, the establishment of the kinetic equilibrium between malate/NAD and oxaloacetate/NADH was catalyzed by malic dehydrogenase (eq. 2). […] The accumulation of NADH can be continuously followed by monitoring the increase of fluorescence emission at 460 nm on a fluorescence plate reader. The fluorescence plate reader was calibrated using the authentic acetyl-CoA from Sigma. For a typical 96-well plate assay, the increase in the fluorescence emission (λex=360 nm, λem=460 nm, for NADH) in each well was used to calculate the initial velocity of hMCD. Each 50 μL assay contained 10 mM phosphate buffered saline (Sigma), pH 7.4, 0.05% Tween-20, 25 mM K2HPO4—KH2PO4 (Sigma), 2 mM Malate (Sigma), 2 mM NAD (Boehringer Mannheim), 0.786 units of MD (Roche Chemicals), 0.028 unit of CS (Roche Chemicals), 5-10 nM hMCD, and varying amounts of MCA substrate. Assays were initiated by the addition of MCA, and the rates were corrected for the background rate determined in the absence of hMCD.

| SMILES | Ki [µM] |
| --- | --- |
| CC(C)N(C(=O)NC1CCN(C(=O)OCc2ccccc2)CC1)c1ccc2nc(S)sc2c1 [CBM-000302130] | 0.011 |
| CCCCOc1ccc(C(=O)N2CCC(NC(=O)N(c3ccc4nc(S)sc4c3)C(C)C)CC2)cc1 [CBM-000302216] | 0.0881 |
| CC(C)N(C(=O)NC1CCN(C(=O)COc2ccccc2)CC1)c1ccc2nc(S)sc2c1 [CBM-000302218] | 0.0074 |
| CC(C)N(C(=O)NC1CCN(C(=O)CCc2ccccc2)CC1)c1ccc2nc(S)sc2c1 [CBM-000302220] | 0.0204 |
| CC(C)N(C(=O)NC1CCN(S(=O)(=O)c2ccccc2)CC1)c1ccc2nc(S)sc2c1 [CBM-000302277] | 0.0028 |
| CC(C)N(C(=O)NC1CCN(S(=O)(=O)c2ccc(OC(F)(F)F)cc2)CC1)c1ccc2nc(S)sc2c1 [CBM-000302278] | 0.105 |
| CC(C)N(C(=O)NC1CCN(S(=O)(=O)c2cccc(Cl)c2)CC1)c1ccc2nc(S)sc2c1 [CBM-000302342] | 0.0007 |
| CC(C)N(C(=O)NC1CCN(S(=O)(=O)c2cccc(C#N)c2)CC1)c1ccc2nc(S)sc2c1 [CBM-000302343] | 0.0038 |
| CC(C)N(C(=O)NC1CCN(S(=O)(=O)c2ccc(C(C)(C)C)cc2)CC1)c1ccc2nc(S)sc2c1 [CBM-000302344] | 0.133 |
| CC(C)N(C(=O)NC1CCN(C(=O)c2ccc(F)cc2)CC1)c1ccc2nc(S)sc2c1 [CBM-000302348] | 0.0407 |
| COc1ccc(C(=O)N2CCC(NC(=O)N(c3ccc4nc(S)sc4c3)C(C)C)CC2)cc1 [CBM-000302359] | 0.0072 |
| CC(C)N(C(=O)NC1CCN(C(=O)c2ccco2)CC1)c1ccc2nc(S)sc2c1 [CBM-000302360] | 0.024 |
| CC(C)Oc1ccc(S(=O)(=O)N2CCC(NC(=O)N(c3ccc4nc(S)sc4c3)C(C)C)CC2)cc1 [CBM-000302368] | 0.624 |
| CC(C)N(C(=O)NC1CCN(S(=O)(=O)c2cccc(F)c2)CC1)c1ccc2nc(S)sc2c1 [CBM-000302369] | 0.0028 |
| CCCc1ccc(S(=O)(=O)N2CCC(NC(=O)N(c3ccc4nc(S)sc4c3)C(C)C)CC2)cc1 [CBM-000302384] | 0.0661 |
| COc1cccc(S(=O)(=O)N2CCC(NC(=O)N(c3ccc4nc(S)sc4c3)C(C)C)CC2)c1 [CBM-000302386] | 0.0013 |
| CC(C)c1ccc(S(=O)(=O)N2CCC(NC(=O)N(c3ccc4nc(S)sc4c3)C(C)C)CC2)cc1 [CBM-000302387] | 0.125 |
| CC(=O)c1ccc(S(=O)(=O)N2CCC(NC(=O)N(c3ccc4nc(S)sc4c3)C(C)C)CC2)cc1 [CBM-000302389] | 0.0843 |
| CCc1ccc(S(=O)(=O)N2CCC(NC(=O)N(c3ccc4nc(S)sc4c3)C(C)C)CC2)cc1 [CBM-000302404] | 0.0275 |
| CC(C)N(C(=O)NC1CCN(S(=O)(=O)Cc2ccccc2)CC1)c1ccc2nc(S)sc2c1 [CBM-000302405] | 0.0078 |
| CC(C)N(C(=O)NC1CCN(S(=O)(=O)c2ccc(F)c(Cl)c2)CC1)c1ccc2nc(S)sc2c1 [CBM-000302406] | 0.0014 |
| COc1ccc(S(=O)(=O)N2CCC(NC(=O)N(c3ccc4nc(S)sc4c3)C(C)C)CC2)cc1 [CBM-000302407] | 0.0175 |
| CC(C)N(C(=O)NC1CCN(S(=O)(=O)c2ccc(C#N)cc2)CC1)c1ccc2nc(S)sc2c1 [CBM-000302424] | 0.123 |
| CC(C)N(C(=O)NC1CCN(S(=O)(=O)c2ccc(F)cc2)CC1)c1ccc2nc(S)sc2c1 [CBM-000302425] | 0.0014 |
| CC(C)N(C(=O)NC1CCN(S(=O)(=O)c2cnc(Cl)c(Br)c2)CC1)c1ccc2nc(S)sc2c1 [CBM-000302426] | 0.0193 |

Second part, the compound after the results:

| Ki [µM] | SMILES |
| --- | --- |
| 0.08 | CC(C)N(C(=O)NC1CCN(CCCC(F)(F)F)CC1)c1ccc2nc(S)sc2c1 [CBM-000302182] |
| 0.0191 | CC(C)N(C(=O)NC1CCN(S(=O)(=O)C(C)C)CC1)c1ccc2nc(S)sc2c1 [CBM-000302215, 1-Isopropyl-1-(2-mercapto-benzothiazol-6-yl)-3-[1-(propane-2-sulfonyl)-piperidin-4-yl]-urea] |
| 0.0423 | CC(C)N(C(=O)NC1CCN(C(=O)c2ccc(C(F)(F)F)cc2)CC1)c1ccc2nc(S)sc2c1 [CBM-000302217] |
| 0.0305 | CC(C)N(C(=O)NC1CCN(C(=O)Nc2ccc(C(F)(F)F)cc2)CC1)c1ccc2nc(S)sc2c1 [CBM-000302219] |
| 0.0406 | CCCNC(=O)N1CCC(NC(=O)N(c2ccc3nc(S)sc3c2)C(C)C)CC1 [CBM-000302274] |
| 0.0224 | CC(C)N(C(=O)NC1CCN(C(=O)CCC2CCCC2)CC1)c1ccc2nc(S)sc2c1 [CBM-000302275] |
| 0.0007 | CCCCS(=O)(=O)N1CCC(NC(=O)N(c2ccc3nc(S)sc3c2)C(C)C)CC1 [CBM-000302276] |
| 0.0616 | CC(C)N(C(=O)NC1CCN(S(=O)(=O)c2ccc(C(F)(F)F)cc2)CC1)c1ccc2nc(S)sc2c1 [CBM-000302279] |
| 0.0026 | CC(C)N(C(=O)NC1CCN(S(=O)(=O)c2cccc(C(F)(F)F)c2)CC1)c1ccc2nc(S)sc2c1 [CBM-000302280] |
| 0.0235 | CC(C)CCC(=O)N1CCC(NC(=O)N(c2ccc3nc(S)sc3c2)C(C)C)CC1 [CBM-000302313, 1-isopropyl-1-(2-mercapto-benzothiazole-6-yl)-3-[1-(4-methyl-pentanolyl)-piperidin-4-yl]-urea] |
| 0.0585 | CCCC(=O)N1CCC(NC(=O)N(c2ccc3nc(S)sc3c2)C(C)C)CC1 [CBM-000302314] |
| 0.0996 | COC(=O)CCC(=O)N1CCC(NC(=O)N(c2ccc3nc(S)sc3c2)C(C)C)CC1 [CBM-000302316] |
| 0.0872 | CC(C)N(C(=O)NC1CCN(c2ccc(OC(F)(F)F)cc2)CC1)c1ccc2nc(S)sc2c1 [CBM-000302361] |
